From the supplement of paper PMC10307832 come the findings set out here.

Test in all cases: relative viability (nuclei count vs DMSO), 5 days (fraction); higher = more cells survive
Compound in the assay “TGX 221 + Navitoclax”: CC1=CN2C(=O)C=C(N=C2C(=C1)C(C)NC3=CC=CC=C3)N4CCOCC4 [TGX 221] + CC1(C)CCC(c2ccc(Cl)cc2)=C(CN2CCN(c3ccc(C(=O)NS(=O)(=O)c4ccc(N[C@H](CCN5CCOCC5)CSc5ccccc5)c(S(=O)(=O)C(F)(F)F)c4)cc3)CC2)C1 [Navitoclax] (partner 0.5 µM)
In a few lines:
(§1)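 Cells from lung cancer lines were seeded into 1536-well plates and, one day later, dosed by pin tool. Treatments were either a single drug or a fixed dose of an anchor drug with five library-drug doses (not always all listed) in √10 steps. After 5 days, nuclei were stained in a one-step fixation (final 0.05% Triton X-100, 1% formaldehyde, 1 ug/ml Hoechst) and counted on 4× images, and relative viability is the treated-to-vehicle nuclei ratio, as the median of duplicate plates.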

Compound in assay [1]: O=C(CCCCCCNC(=O)c1cnc(N(c2ccccc2)c2ccccc2)nc1)NO [Ricolinostat] + CC(=O)c1c(C)c2cnc(Nc3ccc(N4CCNCC4)cn3)nc2n(C2CCCC2)c1=O [Palbociclib] (partner 0.5 µM)
In a few lines: as §1

Compound in assay [2]: O=C(CCCCCCNC(=O)c1cnc(N(c2ccccc2)c2ccccc2)nc1)NO [Ricolinostat] + CCNC(=O)c1noc(-c2cc(C(C)C)c(O)cc2O)c1-c1ccc(CN2CCOCC2)cc1 [Luminespib] (partner 0.01 µM)
In a few lines: as §1

Compound in the assay “Ricolinostat + Lapatinib”: O=C(CCCCCCNC(=O)c1cnc(N(c2ccccc2)c2ccccc2)nc1)NO [Ricolinostat] + CS(=O)(=O)CCNCc1ccc(-c2ccc3ncnc(Nc4ccc(OCc5cccc(F)c5)c(Cl)c4)c3c2)o1 [Lapatinib] (partner 2 µM)
In a few lines:
as §1

Consider NCI-H3122, for which the relative viability with TGX 221 + Navitoclax (first compound 0.08 µM) worked out at 1.09; in the assay with TGX 221 + Navitoclax (first compound 0.253 µM), 1.03; with TGX 221 + Navitoclax (first compound 0.8 µM) it was 1.02; in the assay with TGX 221 + Navitoclax (first compound 2.53 µM) it was 1.09; in the assay with TGX 221 + Navitoclax (first compound 8 µM), 1.01; in assay [1] (first compound 0.08 µM), 0.149. For the same cell line, the relative viability amounted to 0.208 in assay [1] (first compound 0.253 µM); 0.186 in assay [1] (first compound 0.8 µM); 0.235 in assay [1] (first compound 2.53 µM); 0.0722 in assay [2] (first compound 0.08 µM); 0.0881 in assay [2] (first compound 0.253 µM); 0.105 in assay [2] (first compound 0.8 µM). For the same cell line, the relative viability is 0.0921 in assay [2] (first compound 2.53 µM); 0.972 with Ricolinostat + Lapatinib (first compound 0.08 µM); 1.01 with Ricolinostat + Lapatinib (first compound 0.253 µM); 1.07 with Ricolinostat + Lapatinib (first compound 0.8 µM); 0.973 with Ricolinostat + Lapatinib (first compound 2.53 µM).

Regarding HOP-62, the relative viability in the assay with TGX 221 + Navitoclax (first compound 0.08 µM) was 1.04; with TGX 221 + Navitoclax (first compound 0.253 µM), 1.06; with TGX 221 + Navitoclax (first compound 0.8 µM) it was 1.09; with TGX 221 + Navitoclax (first compound 2.53 µM), 1.12; with TGX 221 + Navitoclax (first compound 8 µM), 1.06; in assay [1] (first compound 0.08 µM), 0.457. Further, the relative viability in assay [1] (first compound 0.253 µM) came out at 0.406; in assay [1] (first compound 0.8 µM), 0.355; in assay [1] (first compound 2.53 µM), 0.416; in assay [2] (first compound 0.08 µM) it was 0.84; in assay [2] (first compound 0.253 µM) it was 0.857; in assay [2] (first compound 0.8 µM), 0.884. Moreover, the relative viability in assay [2] (first compound 2.53 µM) was found to be 0.747; in the assay with Ricolinostat + Lapatinib (first compound 0.08 µM), 0.935; in the assay with Ricolinostat + Lapatinib (first compound 0.253 µM), 0.88; in the assay with Ricolinostat + Lapatinib (first compound 0.8 µM) it was 0.923; with Ricolinostat + Lapatinib (first compound 2.53 µM), 0.843.

As to LU99A, the relative viability amounted to 0.647 in the assay with TGX 221 + Navitoclax (first compound 0.08 µM); 0.756 with TGX 221 + Navitoclax (first compound 0.253 µM); 0.824 in the assay with TGX 221 + Navitoclax (first compound 0.8 µM); 0.799 with TGX 221 + Navitoclax (first compound 2.53 µM); 0.811 in the assay with TGX 221 + Navitoclax (first compound 8 µM); 0.43 in assay [1] (first compound 0.08 µM). Besides, the relative viability in assay [1] (first compound 0.253 µM) was 0.399; in assay [1] (first compound 0.8 µM) it was 0.396; in assay [1] (first compound 2.53 µM) it was 0.355; in assay [2] (first compound 0.08 µM), 0.254; in assay [2] (first compound 0.253 µM), 0.224; in assay [2] (first compound 0.8 µM), 0.239. The relative viability in assay [2] (first compound 2.53 µM) is 0.25; with Ricolinostat + Lapatinib (first compound 0.08 µM) it was 0.833; with Ricolinostat + Lapatinib (first compound 0.253 µM), 0.853; in the assay with Ricolinostat + Lapatinib (first compound 0.8 µM) it was 0.846; in the assay with Ricolinostat + Lapatinib (first compound 2.53 µM), 0.541.

For HCC-44, the relative viability was found to be 0.992 with TGX 221 + Navitoclax (first compound 0.08 µM); 0.981 with TGX 221 + Navitoclax (first compound 0.253 µM); 0.918 with TGX 221 + Navitoclax (first compound 0.8 µM); 0.837 in the assay with TGX 221 + Navitoclax (first compound 2.53 µM); 0.732 in the assay with TGX 221 + Navitoclax (first compound 8 µM); 0.91 in assay [1] (first compound 0.08 µM). Further, the relative viability in assay [1] (first compound 0.253 µM) came to 0.935; in assay [1] (first compound 0.8 µM), 1.01; in assay [1] (first compound 2.53 µM) it was 0.964; in assay [2] (first compound 0.08 µM), 0.98; in assay [2] (first compound 0.253 µM), 1.04; in assay [2] (first compound 0.8 µM), 1.02. Moreover, the relative viability was 0.911 in assay [2] (first compound 2.53 µM); 1.04 with Ricolinostat + Lapatinib (first compound 0.08 µM); 0.976 with Ricolinostat + Lapatinib (first compound 0.253 µM); 0.922 with Ricolinostat + Lapatinib (first compound 0.8 µM); 0.713 in the assay with Ricolinostat + Lapatinib (first compound 2.53 µM).

Regarding NCI-H2405, the relative viability with TGX 221 + Navitoclax (first compound 0.08 µM) is 0.701; with TGX 221 + Navitoclax (first compound 0.253 µM), 0.815; with TGX 221 + Navitoclax (first compound 0.8 µM), 0.804; with TGX 221 + Navitoclax (first compound 2.53 µM) it was 0.668; in the assay with TGX 221 + Navitoclax (first compound 8 µM), 0.636; in assay [1] (first compound 0.08 µM), 0.517. In addition, the relative viability in assay [1] (first compound 0.253 µM) came to 0.554; in assay [1] (first compound 0.8 µM), 0.542; in assay [1] (first compound 2.53 µM), 0.571; in assay [2] (first compound 0.08 µM), 0.615; in assay [2] (first compound 0.253 µM), 0.929; in assay [2] (first compound 0.8 µM) it was 0.69. The relative viability in assay [2] (first compound 2.53 µM) was 0.874; with Ricolinostat + Lapatinib (first compound 0.08 µM), 0.858; with Ricolinostat + Lapatinib (first compound 0.253 µM), 1.04; with Ricolinostat + Lapatinib (first compound 0.8 µM), 1.08; with Ricolinostat + Lapatinib (first compound 2.53 µM), 1.04.

For PC-14, the relative viability with TGX 221 + Navitoclax (first compound 0.08 µM) worked out at 0.951; in the assay with TGX 221 + Navitoclax (first compound 0.253 µM), 1; with TGX 221 + Navitoclax (first compound 0.8 µM) it was 0.961; in the assay with TGX 221 + Navitoclax (first compound 2.53 µM) it was 1.01; in the assay with TGX 221 + Navitoclax (first compound 8 µM), 0.926; in assay [1] (first compound 0.08 µM), 0.57. Also, the relative viability in assay [1] (first compound 0.253 µM) was determined as 0.478; in assay [1] (first compound 0.8 µM), 0.462; in assay [1] (first compound 2.53 µM), 0.406; in assay [2] (first compound 0.253 µM) it was 0.172; in assay [2] (first compound 0.8 µM) it was 0.177; in assay [2] (first compound 2.53 µM), 0.169. Further, the relative viability with Ricolinostat + Lapatinib (first compound 0.08 µM) is 0.243; with Ricolinostat + Lapatinib (first compound 0.253 µM) it was 0.291; in the assay with Ricolinostat + Lapatinib (first compound 0.8 µM), 0.263; with Ricolinostat + Lapatinib (first compound 2.53 µM), 0.172.

On to COR-L23, for which the relative viability in the assay with TGX 221 + Navitoclax (first compound 0.08 µM) stood at 1.01; with TGX 221 + Navitoclax (first compound 0.253 µM), 1.02; in the assay with TGX 221 + Navitoclax (first compound 0.8 µM) it was 0.963; with TGX 221 + Navitoclax (first compound 2.53 µM), 0.954; with TGX 221 + Navitoclax (first compound 8 µM) it was 0.997; in assay [1] (first compound 0.08 µM) it was 0.261. Further, the relative viability in assay [1] (first compound 0.253 µM) came to 0.227; in assay [1] (first compound 0.8 µM), 0.203; in assay [1] (first compound 2.53 µM) it was 0.156; in assay [2] (first compound 0.08 µM), 0.518; in assay [2] (first compound 0.253 µM), 0.571; in assay [2] (first compound 0.8 µM), 0.661. Moreover, the relative viability in assay [2] (first compound 2.53 µM) is 0.427; with Ricolinostat + Lapatinib (first compound 0.08 µM), 1.05; with Ricolinostat + Lapatinib (first compound 0.253 µM) it was 0.835; in the assay with Ricolinostat + Lapatinib (first compound 0.8 µM), 0.8; in the assay with Ricolinostat + Lapatinib (first compound 2.53 µM) it was 0.588.

NCI-H1666: the relative viability was determined as 0.935 with TGX 221 + Navitoclax (first compound 0.08 µM); 0.759 in the assay with TGX 221 + Navitoclax (first compound 0.253 µM); 0.749 in the assay with TGX 221 + Navitoclax (first compound 0.8 µM); 0.844 with TGX 221 + Navitoclax (first compound 2.53 µM); 0.927 in the assay with TGX 221 + Navitoclax (first compound 8 µM); 0.741 in assay [1] (first compound 0.08 µM). Besides, the relative viability in assay [1] (first compound 0.253 µM) is 0.664; in assay [1] (first compound 0.8 µM), 0.644; in assay [1] (first compound 2.53 µM), 0.598; in assay [2] (first compound 0.08 µM), 0.969; in assay [2] (first compound 0.253 µM), 1.04; in assay [2] (first compound 0.8 µM), 0.976. Further, the relative viability was 0.836 in assay [2] (first compound 2.53 µM); 0.564 in the assay with Ricolinostat + Lapatinib (first compound 0.08 µM); 0.65 in the assay with Ricolinostat + Lapatinib (first compound 0.253 µM); 0.542 in the assay with Ricolinostat + Lapatinib (first compound 0.8 µM); 0.374 with Ricolinostat + Lapatinib (first compound 2.53 µM).
